The compounds below were run against T1, AHR (Homo sapiens, UniProt P35869) (assay: DRE-Luciferase Reporter Assay, HepG2 (agonist)). Conditions: DRE-Luc HepG2 - Agonist: Average EC50 (μM), HepG2, Table 2.
T1 construct: endogenous in cells; host or cells: HepG2 (human), transfected with a DRE-luciferase reporter only
T1 sequence (P35869 11-848): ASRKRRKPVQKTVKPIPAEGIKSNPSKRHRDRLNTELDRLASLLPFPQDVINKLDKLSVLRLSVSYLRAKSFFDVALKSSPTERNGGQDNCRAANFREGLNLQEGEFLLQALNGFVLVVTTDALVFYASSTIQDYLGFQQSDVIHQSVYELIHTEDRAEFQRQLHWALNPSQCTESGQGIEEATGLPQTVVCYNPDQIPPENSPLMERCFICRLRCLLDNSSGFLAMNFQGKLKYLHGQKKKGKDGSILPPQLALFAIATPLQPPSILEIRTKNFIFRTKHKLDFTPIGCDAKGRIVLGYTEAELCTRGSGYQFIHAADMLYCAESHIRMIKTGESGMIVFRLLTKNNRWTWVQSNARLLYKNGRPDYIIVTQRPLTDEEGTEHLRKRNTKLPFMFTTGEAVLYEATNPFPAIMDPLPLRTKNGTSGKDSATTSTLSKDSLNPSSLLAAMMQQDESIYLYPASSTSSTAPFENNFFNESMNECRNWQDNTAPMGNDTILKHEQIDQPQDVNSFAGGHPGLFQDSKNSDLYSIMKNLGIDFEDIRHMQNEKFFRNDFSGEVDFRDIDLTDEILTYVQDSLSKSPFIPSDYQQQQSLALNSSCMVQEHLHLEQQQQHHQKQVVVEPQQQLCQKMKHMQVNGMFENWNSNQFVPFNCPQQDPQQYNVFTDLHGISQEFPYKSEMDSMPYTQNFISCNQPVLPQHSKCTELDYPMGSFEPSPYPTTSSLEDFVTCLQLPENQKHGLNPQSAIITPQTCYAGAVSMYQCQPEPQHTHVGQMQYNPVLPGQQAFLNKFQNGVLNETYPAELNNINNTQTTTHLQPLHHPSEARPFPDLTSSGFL
Assay type: cell-based
Experimental: DRE-Luciferase Reporter Assay
AHR binds to Dioxin Responsive Elements (DRE) upstream of genes that it activates. One measure of AHR activity is activation of a reporter gene, such as luciferase, downstream of one or multiple DRE elements. Luciferase activity reflects activation and inhibition of AHR in the cells expressing this reporter.
Murine Hepa1-6 or Hepa-1c1c7 or other murine cell line with a DRE-luciferase reporter either stably or transiently transfected are plated in media in plates (96-well, 384-well or other plates) and incubated overnight at 37 C in a CO2 incubator. Likewise, human HepG2 or other human cell line with a DRE-luciferase reporter either stably or transiently transfected are plated in media in plates (96-well, 384-well or other plates) and incubated overnight at 37 C in a CO2 incubator.
The next day, an AHR agonist compound is added. Cells are incubated for 6, 16 or 24 hours or another time point and then lysed for determination of luciferase activity as a read-out of the AHR activation. Luciferase can be measured with a commercial kit such as the Promega Luciferase kit or any kit or reagents that provide the luciferin substrate for measuring luciferase activity. The level of luciferase with only activating ligand (e.g. such as TCDD, kynurenine, ITE (2-(1H-indole-3-ylcarbonyl)-4-thiazolecarboxylic methyl ester), VAF347, BNF (beta-naphthoflavone), ICZ (6-formylindolo(3,2-b) carbazole or other AHR ligands) added is the maximum signal while the luciferase with no ligand is the minimum signal. EC50s can be determined as the concentration which activates half of the maximum luciferase activity.

EC50, > 1 µM:
c1ccc(Nc2nc(-c3ccccc3)cs2)cc1 [Compound P-14]

Same assay, conditions: DRE-Luc HepG2 - Agonist: Average EC50 (μM), HepG2, Table 3

EC50, > 1 µM:
O=C(O)c1cccc(Nc2nc(-c3cccc([N+](=O)[O-])c3)cs2)c1 [I-81]

Same assay, conditions: HepG2, Table 2; read-out: DRE-Luc HepG2 - Agonist: Average EC50

EC50, > 1 µM:
C[N+](C)(CCOCCN(c1cccc(C(F)(F)F)c1)c1nc(-c2cccc(Cl)c2)cs1)CC(=O)O [I-51], C[N+](C)(CCO)CCOCCN(c1ccc(C(F)(F)F)cc1)c1nc(-c2cccc(Cl)c2)cs1 [I-52], FC(F)(F)c1ccc(Nc2nnc(-c3cccc(Cl)c3)o2)cc1 [I-64], FC(F)(F)c1ccc(Nc2nnc(-c3cccc(Cl)c3)[nH]2)cc1 [I-65], Oc1ccc(-c2cnc(Nc3ccc(C(F)(F)F)cc3)o2)cc1 [I-67], Oc1cccc(-c2cnc(Nc3ccc(C(F)(F)F)cc3)o2)c1 [I-68], CN(C)CCOc1cccc(-c2cnc(Nc3ccc(C(F)(F)F)cc3)o2)c1 [I-69], Cn1cc(-c2cccc(Cl)c2)nc1Nc1cccc(C(F)(F)F)c1 [I-70], Cn1c(-c2cccc(Cl)c2)cnc1Nc1cccc(C(F)(F)F)c1 [I-71], C[N+](C)(C)CCOc1cccc(-c2cnc(Nc3ccc(C(F)(F)F)cc3)o2)c1 [I-72], C[N+](C)(C)CCOc1ccc(-c2cnc(Nc3ccc(C(F)(F)F)cc3)o2)cc1 [I-73], CN(C)CCOc1ccc(-c2cnc(Nc3ccc(C(F)(F)F)cc3)o2)cc1 [I-74], Oc1ccccc1-c1cnc(Nc2ccc(C(F)(F)F)cc2)o1 [I-75]

EC50, 0.1 to 1 µM:
C[N+](C)(CCO)CCOCCN(c1cccc(C(F)(F)F)c1)c1nc(-c2cccc(Cl)c2)cs1 [I-45], FC(F)(F)c1ccc(Nc2ncc(-c3ccccc3Cl)o2)cc1 [I-62], FC(F)(F)c1ccc(Nc2nc(-c3cccc(Cl)c3)co2)cc1 [I-63]

Same assay, conditions: HepG2, Table 3; read-out: DRE-Luc HepG2 - Agonist: Average EC50

EC50, < 0.01 µM:
CN(CCNC(=O)N(c1cccc(C(F)(F)F)c1)c1nc(-c2cccc(Cl)c2)cs1)CC(=O)O [I-86], O=[N+]([O-])c1cccc(-c2csc(Nc3cncc(C(F)(F)F)c3)n2)c1 [I-96], NC(=O)c1cccc(-c2csc(Nc3cccc(C(F)(F)F)n3)n2)c1 [I-119]

EC50, 0.1 to 1 µM:
C[n+]1cccc(-c2csc(N(C(=O)NCCC[N+](C)(C)C)c3cccc(C(F)(F)F)c3)n2)c1 [I-98], COC(=O)c1cccc(-c2csc(Nc3cccc(C(F)(F)F)c3)n2)c1 [I-106], COC(=O)c1cc(-c2csc(Nc3cccc(C(F)(F)F)c3)n2)cc([N+](=O)[O-])c1 [I-108], C[N+](C)(C)CCNC(=O)N(c1cccc(C(F)(F)F)c1)c1nc(-c2ccc[n+]([O-])c2)cs1 [I-118], COC(=O)c1cc(-c2csc(Nc3cccc(C(F)(F)F)c3)n2)c[n+]([O-])c1 [I-127], [O-][n+]1cccc(-c2csc(Nc3ccc(C(F)(F)F)cc3)n2)c1 [I-129], O=c1cc(-c2nc(Nc3cccc(C(F)(F)F)c3)no2)cc[nH]1 [I-133], O=c1cc(-c2cc(Nc3cccc(C(F)(F)F)c3)no2)cc[nH]1 [I-139]

EC50, > 1 µM:
O=C(O)c1cc(-c2csc(Nc3cccc(C(F)(F)F)c3)n2)cc([N+](=O)[O-])c1 [I-78], O=C(O)c1cncc(-c2csc(Nc3cccc(C(F)(F)F)c3)n2)c1 [I-79], NC(=O)c1cccc(Nc2nc(-c3cccc([N+](=O)[O-])c3)cs2)c1 [I-82], O=S(=O)(O)c1cccc(-c2csc(Nc3cccc(C(F)(F)F)c3)n2)c1 [I-85], C[N+]1(C)CCN(C(=O)c2cccc(Nc3nc(-c4cccc([N+](=O)[O-])c4)cs3)c2)CC1 [I-88], [O-][n+]1ccccc1-c1csc(Nc2cccc(C(F)(F)F)c2)n1 [I-94], N#Cc1cc(C(=O)O)cc(-c2csc(Nc3cccc(C(F)(F)F)c3)n2)c1 [I-95], NC(=O)c1cc(-c2csc(Nc3cccc(C(F)(F)F)c3)n2)c[n+]([O-])c1 [I-99], NC(=O)c1cc(-c2csc(Nc3cccc(C(F)(F)F)c3)n2)cc([N+](=O)[O-])c1 [I-101], COC(=O)c1cncc(-c2csc(Nc3cccc(C(F)(F)F)c3)n2)c1 [I-102], O=[N+]([O-])c1cccc(-c2csc(Nc3cccc(S(=O)(=O)O)c3)n2)c1 [I-103], COC(=O)c1cccc(Nc2nc(-c3cccc(C#N)c3)cs2)c1 [I-104], NC(=O)c1cccc(-c2csc(Nc3cncc(C(F)(F)F)c3)n2)c1 [I-105], C[N+](C)(C)CCCNC(=O)N(c1cccc(C(F)(F)F)c1)c1nc(-c2ccc[n+]([O-])c2)cs1 [I-110], O=C(O)c1cc(-c2csc(Nc3cccc(C(F)(F)F)c3)n2)c[n+]([O-])c1 [I-111], COC(=O)c1cc(C#N)cc(-c2csc(Nc3cccc(C(F)(F)F)c3)n2)c1 [I-113], N#Cc1cccc(-c2csc(Nc3cccc(C(=O)O)c3)n2)c1 [I-114], N#Cc1cc(-c2csc(Nc3cccc(C(F)(F)F)c3)n2)cc([N+](=O)[O-])c1 [I-115], O=C(O)c1cccc(Nc2nc(-c3ccc[n+]([O-])c3)cs2)c1 [I-116], [O-][n+]1cccc(-c2csc(Nc3cncc(C(F)(F)F)c3)n2)c1 [I-122], [O-][n+]1cccc(-c2cnc(Nc3cccc(C(F)(F)F)c3)o2)c1 [I-123], N#Cc1cccc(-c2coc(Nc3cccc(C(F)(F)F)c3)n2)c1 [I-124], O=c1cc(-c2cnc(Nc3cccc(C(F)(F)F)c3)o2)cc[nH]1 [I-126], [O-][n+]1cccc(-c2cc(Nc3cccc(C(F)(F)F)c3)no2)c1 [I-131], CSc1cccc(-c2csc(Nc3cccc(C(F)(F)F)c3)n2)c1 [I-132], [O-][n+]1cccc(-c2nc(Nc3cccc(C(F)(F)F)c3)no2)c1 [I-134], O=c1cc(-c2noc(Nc3cccc(C(F)(F)F)c3)n2)cc[nH]1 [I-135], O=c1cc(-c2cc(Nc3cccc(C(F)(F)F)c3)on2)cc[nH]1 [I-137], N#Cc1cccc(-c2cc(Nc3cccc(C(F)(F)F)c3)on2)c1 [I-138], [O-][n+]1cccc(-c2cc(Nc3cccc(C(F)(F)F)c3)on2)c1 [I-140], COc1cc(-c2csc(Nc3cccc(SC)c3)n2)ccn1 [I-141], CSc1cccc(Nc2nc(-c3cc[nH]c(=O)c3)cs2)c1 [I-142], [O-][n+]1cccc(-c2noc(Nc3cccc(C(F)(F)F)c3)n2)c1 [I-150], N#Cc1cccc(-c2cc(Nc3cccc(C(F)(F)F)c3)no2)c1 [I-151]

EC50, 0.01 to 0.1 µM:
N#Cc1cc(Cl)cc(-c2csc(Nc3cccc(C(F)(F)F)c3)n2)c1 [I-80], O=[N+]([O-])c1cccc(-c2csc(Nc3ccc(C(F)(F)F)cc3)n2)c1 [I-84]

Source: patent publication US12030876B2, “Aryl hydrocarbon receptor (AHR) agonists and uses thereof” (Ikena Oncology, Inc., priority 2019, dated 2024)
